Laboratory results published in patent US8597649B2, “Antagonist antibodies directed against calcitonin gene-related peptide and methods using same” (Labrys Biologics, Inc., priority 2005, dated 2013).

Columns and labels:
[1] = system: skin vasodilatation induced by stimulation of rat saphenous nerve; test: skin vasodilatation induced by stimulation of rat saphenous nerve; format: in vivo; settings: 400 nmol/kg i.v., 3-5 min before stimulation, compared to the control (FIG. 2A, 2B)
Method: To test antagonist activity of anti-CGRP antibodies, effect of the antibodies on skin vasodilatation by stimulation of rat saphenous nerve was tested using a rat model described previously. Escott et al., Br. J. Pharmacol. 110:772-776, 1993. In this rat model, electrical stimulation of saphenous nerve induces release of CGRP from nerve endings, resulting in an increase in skin blood flow. Blood flow in the foot skin of male Sprague Dwaley rats (170-300 g, from Charles River Hollister) was measured after saphenous nerve stimulation. Rats were maintained under anesthesia with 2% isoflurane. Bretylium tosylate (30 mg/kg, administered i.v.) was given at the beginning of the experiment to minimize vasoconstriction due to the concomitant stimulation of sympathetic fibers of the saphenous nerve. Body temperature was maintained at 37° C. by the use of a rectal probe thermostatically connected to a temperature controlled heating pad. […]
For experiments shown in FIGS. […] Skin blood flow, measured as blood cell flux, was monitored with a laser Doppler flow meter. […]
For experiments shown in FIGS. 4A and 4B, saphenous nerve was exposed surgically before antibody administration. […] Skin blood flow, measured as blood cell flux, was monitored with a laser Doppler flow meter. […]

[2] = system: middle meningeal artery (MMA) dilation evoked by electrical field stimulation; test: Dural artery (closed cranial window) assay; format: in vivo; settings: rat, i.v.
Method: Closed Cranial Window Model: The purpose of this experiment was to determine the acute effect of anti-CGRP antagonist antibodies and compare it with the acute effect of the CGRP receptor antagonist BIBN4096BS. Experiments were carried out as previously described (Williamson et al., Cephalalgia 17(4):518-24 (1997)) with the following modifications. Sprague Dawley rats (300-400 g) were anesthetized with 70 mg/kg i.p. pentobarbital. Anesthesia was maintained with 20 mg/kg/hr i.v. pentobarbital. Rats were cannulated through the jugular vein for delivery of all drugs. Blood pressure was monitored with a probe (mikro-tip catheter, Millar Instruments) threaded through the femoral artery into the abdominal aorta. The rats were tracheotomized and breathing rate was maintained at 75 breaths per minute at a volume of 3.5 mL. After fixating the head in a stereotactic instrument and removing the scalp, a 2×6 mm window in the left parietal area just lateral to the sagittal suture was made by thinning the bone with a dental drill. […] Lateral to the electrode window another window of 5×6 mm was created and filled with heavy mineral oil through which the diameter of a branch of the middle meningeal artery (MMA) was continuously monitored with a CCD camera and a video dimension analyzer (Living Systems). […] All data was recorded using chart software (ADInstruments). […]

Compound: CGRP 8-37: Positive control compound CGRP 8-37 (vasodilatation antagonist) (VTHRLAGLLSRSGGVVKNNFVPTNVGSKAF) [reference compound]
- blood flow increase stimulated by applying electronic pulses on saphenous nerve [1]: inhibited

Compound: NCCCC[C@H](NC(=O)[C@@H](Cc1cc(Br)c(O)c(Br)c1)NC(=O)N1CCC(N2Cc3ccccc3NC2=O)CC1)C(=O)N1CCN(c2ccncc2)CC1 [BIBN4096BS]
- time after dosing by which the effect has completely disappeared ([2]; 300 μg/kg BIBN4096BS (FIG. 9)): ≤ 90 min
- block of MMA dilation evoked by electrical field stimulation ([2]; acute, 10 mg/kg mu7E9, 300 μg/kg BIBN4096BS (FIG. 9)): blocks
